Experimental data: ChEMBL document CHEMBL6109068, “Design, synthesis, and biological evaluation of 5'-deoxy (N)-methanocarbanucleoside derivatives as A3 adenosine receptor ligands” (Bioorg Med Chem Lett, 2025)

What was measured:
[1] = molecular target: T1, Adenosine receptor A3 (Homo sapiens) (UniProt P0DMS8); assay: Displacement of [3H]-NECA from human A3AR stably expressed in HeLa cell membrane at 10 uM relative to control; assay type: cell membranes
T1 sequence (whole entry): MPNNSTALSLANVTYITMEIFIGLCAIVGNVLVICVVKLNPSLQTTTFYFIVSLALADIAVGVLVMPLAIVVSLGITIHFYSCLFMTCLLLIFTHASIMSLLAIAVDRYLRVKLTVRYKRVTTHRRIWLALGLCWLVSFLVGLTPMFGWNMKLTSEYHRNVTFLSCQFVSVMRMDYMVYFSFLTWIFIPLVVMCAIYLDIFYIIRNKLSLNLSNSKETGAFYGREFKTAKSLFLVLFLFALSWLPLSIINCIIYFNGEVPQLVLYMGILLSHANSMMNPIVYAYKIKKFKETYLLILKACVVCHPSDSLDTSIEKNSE

[2] = molecular target: T2, Adenosine receptor A3 (Homo sapiens, UniProt P0DMS8); assay: Displacement of [3H]-NECA from human A3AR stably expressed in HeLa cell membrane; assay type: cell membranes
T2 sequence (P0DMS8 whole entry): T1 sequence (whole entry)

inhibition [1] [%] | Ki [2] [nM] | SMILES
89 | – | C[C@]12C[C@@H]1[C@@H](n1cnc3c(N)nc(Cl)nc31)[C@H](O)[C@@H]2O
– | 124 | C[C@]12C[C@@H]1[C@@H](n1cnc3c(NCc4cccc(F)c4)nc(Cl)nc31)[C@H](O)[C@@H]2O
– | 70.3 | C[C@]12C[C@@H]1[C@@H](n1cnc3c(NCc4cccc(Cl)c4)ncnc31)[C@H](O)[C@@H]2O
